Each compound was assayed against T1, human liver FBPase (Homo sapiens, UniProt P09467) (assay: FBPase assay: inorganic phosphate release (malachite green)). Conditions: recombinant human liver FBPase, 50 μM fructose-1,6-bisphosphate, read-out at 620 nm.
T1 construct: made in house; host or cells: E. coli
T1 sequence (P09467 2-338 limits assumed): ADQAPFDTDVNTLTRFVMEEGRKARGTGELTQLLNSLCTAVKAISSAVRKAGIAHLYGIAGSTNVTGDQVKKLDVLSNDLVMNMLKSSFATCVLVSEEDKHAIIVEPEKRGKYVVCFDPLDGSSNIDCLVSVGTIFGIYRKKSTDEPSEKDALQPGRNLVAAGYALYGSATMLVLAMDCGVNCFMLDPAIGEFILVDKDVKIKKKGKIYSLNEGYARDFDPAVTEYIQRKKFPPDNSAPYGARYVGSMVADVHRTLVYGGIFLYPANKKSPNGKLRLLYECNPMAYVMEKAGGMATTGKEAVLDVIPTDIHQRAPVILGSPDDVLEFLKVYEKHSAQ
Assay type: biochemical
Method: The following tests were carried out for evaluating the inhibitory activity of the compounds of the present invention against human liver FBPase (Swissprot Data base reference P09467, entry F16P_HUMAN).
Human liver FBPase cDNA (NM_000507) was purchased from Origene Technologies, Inc, subcloned in a vector for expression in E. Coli., and sequenced. Recombinant human liver FBPase (hlFBPase) was purified according to the following protocol that uses heat denaturation similarly to that described by El-Maghrabi et. al. [El-Maghrabi, M. R. et al. “Isolation of a human liver fructose-1,6-bisphosphatase cDNA and expression of the protein in Escherichia coli.” J Biol Chem 268:9466-9472, 1993.]. Briefly, E. coli cells, transiently expressing very high levels of soluble and active human liver FBPase, were suspended in 20 mM Tris-HCl pH 7.5, 1 mM EDTA, 1 mM DTT and were lysed by French press. The soluble extract was heat denatured at 65° C. for 5 min, and insoluble, denatured proteins were removed by centrifugation. The extract was then applied to a BioRad Macro-Prep High Q column equilibrated with 20 mM Tris-HCl pH 7.5, 1 mM EDTA, 1 mM DTT and the flow-through (containing FBPase activity) was collected and applied to a BioRad Macro-Prep HS column equilibrated with 20 mM HEPES pH 7.2, 1 mM DTT. A gradient of increasing NaCl concentration was then applied to the HS column and fractions were collected. Fractions containing active FBPase were pooled and further purified by size exclusion chromatography on a Sephacryl S200 column equilibrated in 20 mM Tris-HCl pH 7.5, 150 mM NaCl, 1 mM EDTA, 1 mM DTT. Purity of the enzyme preparation was >90% as assessed by Mass spectrometry.
Recombinant human liver FBPase (hlFBPase) activity was assayed through measuring the inorganic phosphate release that results from the hydrolysis of Fructose-1,6-bisphosphate by the enzyme. As described by Baykov A. A. et al. in [Baykov A. A et al., “Malachite Green procedure for orthophosphate determination and its use in alkaline phosphatase-based enzyme immunoassays”. Anal. Biochem., 171:266-270, 1988], inorganic phosphate can be readily quantified by spectrophotometry at 620 nm after complexation with ammonium molybdate/malachite green reagent. Enzymatic reaction was carried out with modifications of the procedure described by Wright S. W. et al. [Wright S. W. et al., “Anilinoquinazoline inhibitors of Fructose-1,6-bisphosphatase bind to a novel allosteric site: synthesis, in vitro characterization, and X-ray crystallography”. J. Med. Chem. 45:3865-3877, 2002]. Specifically, the reaction was carried out in 96 well plates in a final volume of 100 μl in the presence or in the absence of allosteric inhibitors. Reaction was started adding 25 ng of hlFBPase to the reaction mixture containing 50 mM HEPES-KOH buffer pH 7.2, 2 mM MgCl2, 2 mM EDTA, 1 mM DTT, 50 μM fructose-1,6-bisphosphate and 1% DMSO. After 50 minutes incubation at room temperature, the phosphate released was allowed to form a colored complex for 10 min by adding 150 μl of ammonium molybdate/malachite green reagent containing 0.03% malachite green, 0.2% ammonium molybdate, 0.05% Triton X-100 and 0.7 M H2SO4 in water that was stirred for 30 min at room temperature and filtered through 0.2 μm filter. Under these conditions, the assay was linear with time and able to detect FBPase inhibition after spectrophotometric read-out at 620 nm.

| Structure (SMILES) | IC50 |
| --- | --- |
| COCCn1cc(S(=O)(=O)NC(=O)Nc2ncc(Br)s2)c2ccccc21 [Example 31, N-[(5-Bromo-1,3-thiazol-2-yl)carbamoyl]-1-(2-methoxyethyl)-1H-indole-3-sulfonamide] | 2250 nM |
| COC(=O)c1cccc2c(S(=O)(=O)NC(=O)Nc3ncc(Br)s3)cn(C)c12 [Example 32, Methyl 3-({[(5-bromo-1,3-thiazol-2-yl)carbamoyl]amino}sulfonyl)-1-methyl-1H-indole-7-carboxylate] | 653 nM |
| COc1cccc2c(S(=O)(=O)NC(=O)Nc3ncc(Br)s3)cn(C)c12 [Example 33, N-[(5-Bromo-1,3-thiazol-2-yl)carbamoyl]-7-methoxy-1-methyl-1H-indole-3-sulfonamide] | 71 nM |
| Cn1cc(S(=O)(=O)NC(=O)Nc2ncc(Br)s2)c2cccc(Br)c21 [Example 34, 7-Bromo-N-[(5-bromo-1,3-thiazol-2-yl)carbamoyl]-1-methyl-1H-indole-3-sulfonamide] | 296 nM |
| COCc1oc(S(=O)(=O)NC(=O)Nc2nc(C)c(Br)s2)cc1C [Example 35, N-[(5-Bromo-4-methyl-1,3-thiazol-2-yl)carbamoyl]-5-(methoxymethyl)-4-methylfuran-2-sulfonamide] | 258 nM |
| COCc1oc(S(=O)(=O)NC(=O)Nc2ncc(Br)s2)cc1C [Example 36, N-[(5-Bromo-1,3-thiazol-2-yl)carbamoyl]-5-(methoxymethyl)-4-methylfuran-2-sulfonamide] | 315 nM |
| O=C(Nc1ncc(Br)s1)NS(=O)(=O)c1cc2cccc(OCc3ccccc3)c2s1 [Example 37, 7-(Benzyloxy)-N-[(5-bromo-1,3-thiazol-2-yl)carbamoyl]-1-benzothiophene-2-sulfonamide] | 972 nM |
| COCCOc1cccc2cc(S(=O)(=O)NC(=O)Nc3ncc(Br)s3)sc12 [Example 38, N-[(5-bromo-1,3-thiazol-2-yl)carbamoyl]-7-(2-methoxyethoxy)-1-benzothiophene-2-sulfonamide] | 179 nM |
| COc1cccc2cc(S(=O)(=O)NC(=O)Nc3ncc(Br)s3)sc12 [Example 39, N-[(5-bromo-1,3-thiazol-2-yl)carbamoyl]-7-methoxy-1-benzothiophene-2-sulfonamide] | 105 nM |
| COc1cccc2cc(S(=O)(=O)NC(=O)Nc3ncc(Br)s3)n(C)c12 [Example 40, N-[(5-bromo-1,3-thiazol-2-yl)carbamoyl]-7-methoxy-1-methyl-1H-indole-2-sulfonamide] | 329 nM |
| Cn1cc(S(=O)(=O)NC(=O)Nc2ncc(Br)s2)c2cccc(OCc3ccccc3)c21 [Example 41, 7-(Benzyloxy)-N-[(5-bromo-1,3-thiazol-2-yl)carbamoyl]-1-methyl-1H-indole-3-sulfonamide] | 124 nM |
| COCCOc1cccc2c(S(=O)(=O)NC(=O)Nc3ncc(Br)s3)cn(C)c12 [Example 42, N-[(5-bromo-1,3-thiazol-2-yl)carbamoyl]-7-(2-methoxyethoxy)-1-methyl-1H-indole-3-sulfonamide] | 375 nM |
| COc1cccc2c(S(=O)(=O)NC(=O)Nc3ncc(Br)s3)c[nH]c12 [Example 43, N-[(5-bromo-1,3-thiazol-2-yl)carbamoyl]-7-methoxy-1H-indole-3-sulfonamide] | 4060 nM |
| COc1cnc(NC(=O)NS(=O)(=O)c2cn(C)c3c(OC)cccc23)s1 [Example 44, 7-Methoxy-N-[(5-methoxy-1,3-thiazol-2-yl)carbamoyl]-1-methyl-1H-indole-3-sulfonamide] | 1320 nM |

Further lines, results first:

| IC50 | Structure (SMILES) |
| --- | --- |
| 402 nM | COCCc1sc(S(=O)(=O)NC(=O)Nc2nc3cc(OC)ccc3s2)cc1C [Example 45, N-[(5-Methoxy-1,3-benzothiazol-2-yl)carbamoyl]-5-(2-methoxyethyl)-4-methylthiophene-2-sulfonamide] |
| 3500 nM | COc1cnc(NC(=O)NS(=O)(=O)c2cn(C)c3c(OCCOC(C)=O)cccc23)s1 [Example 46, 2-{[3-({[(5-Methoxy-1,3-thiazol-2-yl)carbamoyl]amino}sulfonyl)-1-methyl-1H-indol-7-yl]oxy}ethyl acetate] |
| 734 nM | COc1cnc(NC(=O)NS(=O)(=O)c2cn(C)c3c(OCCO)cccc23)s1 [Example 47, 7-(2-Hydroxyethoxy)-N-[(5-methoxy-1,3-thiazol-2-yl)carbamoyl]-1-methyl-1H-indole-3-sulfonamide] |
| 429 nM | CC(=O)OCCOc1cccc2c(S(=O)(=O)NC(=O)Nc3ncc(Br)s3)cn(C)c12 [Example 48, 2-{[3-({[(5-Bromo-1,3-thiazol-2-yl)carbamoyl]amino}sulfonyl)-1-methyl-1H-indol-7-yl]oxy}ethyl acetate] |
| 104 nM | Cn1cc(S(=O)(=O)NC(=O)Nc2ncc(Br)s2)c2cccc(OCCO)c21 [Example 49, N-[(5-Bromo-1,3-thiazol-2-yl)carbamoyl]-7-(2-hydroxyethoxy)-1-methyl-1H-indole-3-sulfonamide] |
| 212 nM | CCOC(=O)COc1cccc2c(S(=O)(=O)NC(=O)Nc3ncc(Br)s3)cn(C)c12 [Example 50, Ethyl {[3-({[(5-bromo-1,3-thiazol-2-yl)carbamoyl]amino}sulfonyl)-1-methyl-1H-indol-7-yl]oxy}acetate] |
| 137 nM | Cn1cc(S(=O)(=O)NC(=O)Nc2ncc(Br)s2)c2cccc(OCC(N)=O)c21 [Example 51, 2-{[3-({[(5-Bromo-1,3-thiazol-2-yl)carbamoyl]amino}sulfonyl)-1-methyl-1H-indol-7-yl]oxy}acetamide] |
| 771 nM | COc1sc(NC(=O)NS(=O)(=O)c2cn(C)c3c(OC)cccc23)nc1C [Example 52, 7-Methoxy-N-[(5-methoxy-4-methyl-1,3-thiazol-2-yl)carbamoyl]-1-methyl-1H-indole-3-sulfonamide] |
| 764 nM | COc1sc(NC(=O)NS(=O)(=O)c2cn(C)c3c(OCC(N)=O)cccc23)nc1C [Example 53, 2-{[3-({[(5-Methoxy-4-methyl-1,3-thiazol-2-yl)carbamoyl]amino}sulfonyl)-1-methyl-1H-indol-7-yl]oxy}acetamide] |
| 1280 nM | COc1cnc(NC(=O)NS(=O)(=O)c2cc3cccc(OC)c3s2)s1 [Example 54] |
| 616 nM | COc1ccc2nc(NC(=O)NS(=O)(=O)c3cc(C)c(CCOC(C)=O)s3)sc2n1 [Example 55, 2-[5-({[(5-methoxy[1,3]thiazolo[5,4-b]pyridin-2-yl)carbamoyl]amino}sulfonyl)-3-methyl-2-thienyl]ethyl acetate] |
| 534 nM | COc1ccc2nc(NC(=O)NS(=O)(=O)c3cc(C)c(CCO)s3)sc2n1 [Example 56, 5-(2-Hydroxyethyl)-N-[(5-methoxy[1,3]thiazolo[5,4-b]pyridin-2-yl)carbamoyl]-4-methylthiophene-2-sulfonamide] |
| 188 nM | CCc1nc(NC(=O)NS(=O)(=O)c2csc(C)c2)sc1Br [Example 57, N-[(5-Bromo-4-ethyl-1,3-thiazol-2-yl)carbamoyl]-5-methylthiophene-3-sulfonamide] |
| 155 nM | CCc1nc(NC(=O)NS(=O)(=O)c2cc(C)c(CCOC)s2)sc1Br [Example 58, N-[(5-Bromo-4-ethyl-1,3-thiazol-2-yl)carbamoyl]-5-(2-methoxyethyl)-4-methylthiophene-2-sulfonamide] |
| 434 nM | CCc1nc(NC(=O)NS(=O)(=O)c2cc(CCOC)c(C)s2)sc1Br [Example 59, N-[(5-Bromo-4-ethyl-1,3-thiazol-2-yl)carbamoyl]-4-(2-methoxyethyl)-5-methylthiophene-2-sulfonamide] |
